Earlier results as cited in patent publication US7595169B2, “Method for determining percent platelet aggregation” (Accumetrics, Inc., priority 2005, dated 2009).

Tested on: platelet aggregation
Conditions: patients with stable angina pectoris scheduled for elective coronary stent placement; literature study

Compound: COC(=O)[C@H](c1ccccc1Cl)N1CCc2sccc2C1 [clopidogrel]
- patients receiving the drug who did not achieve the expected platelet aggregation inhibition: at least 10%
